Results from patent publication US9925192B2, “Method for treating cancer” (Merck Sharp & Dohme Corp., priority 2014, dated 2018).

Legend:
[1] = system: H128 SCLC cells; assay: In vitro cell viability (Cell Titer Glo), 8 hours of compound treatment; type: cell-based; conditions: Homo sapiens, read-out: % Viability Remaining (8 hr), mean
Experimental: (§1) All cell lines were grown in exponential growth phase.

[2] = system: H82 SCLC cells; assay: as above; type: cell-based; conditions: Homo sapiens, read-out: % Viability Remaining (8 hr), mean
Experimental: as §1

[3] = system: H146 SCLC cells; assay: as above; type: cell-based; conditions: Homo sapiens, read-out: % Viability Remaining (8 hr), mean
Experimental: as §1

[4] = system: Su-DHL-8 DLBCL cells; assay: as above; type: cell-based; conditions: Homo sapiens, read-out: % Viability Remaining (8 hr), mean
Experimental: as §1

[5] = system: Su-DHL-4 DLBCL cells; assay: as above; type: cell-based; conditions: Homo sapiens, read-out: % Viability Remaining (8 hr), mean
Experimental: as §1

[6] = system: TOLEDO human Diffuse Large B-Cell Lymphoma (DLBCL) xenograft; assay: Toledo human DLBCL xenograft model; conditions: dinaciclib 40 mg/kg ip q4d, ABT-199 100 mg/kg po qd, alone or combined
Experimental: Eight week old female SCID beige mice (Fox Chase SCID® Beige) with body weights ranging from 18.0 to 22 grams were used for this study. Toledo tumor cells were grown to mid-log phase in RPMI-1640 medium containing 10% fetal bovine serum, 100 units/mL penicillin G, 100 μg/mL streptomycin sulfate, and 10 mM sodium pyruvate. The cells were cultured in tissue culture flasks in a humidified incubator at 37° C., in an atmosphere of 5% CO2 and 95% air. Mice were implanted subcutaneously in the right flank with 5×10e^6 tumor cells in 50% matrigel in a total volume of 0.1 ml. Twenty-eight days after inoculation, mice were randomized into groups when tumors reached an average tumor volume of ˜160 mm^3.
Dinaciclib, formulated in 20% hydroxypropyl beta-cyclodextrin (HPBCD), was dosed at 40 mg/kg intraperitoneal (ip) every four days (q4d). […] Both test agents were administered at 10 ml/kg.
Tumor volume (TV) was measured twice a week using calipers. Tumor volume was calculated by the elliptical formula: Tumor Volume=width2×length/2. Body weight was measured at least twice weekly. […] Statistical Analysis of Tumor Growth Inhibition (TGI) was analyzed by one-way ANOVA followed by Tukey's multiple comparison test.

[7] = system: SUDHL4 human Diffuse Large B-Cell Lymphoma (DLBCL) xenograft; type: in vivo; conditions: dinaciclib 40 mg/kg ip q4d, ABT-199 100 mg/kg po qd, dosing for eleven days, combination measured on day 18
Experimental: (§2) The cells were cultured in tissue culture flasks in a humidified incubator at 37° C., in an atmosphere of 5% CO2 and 95% air.
(§3) Body weight was measured at least twice weekly.

[8] = system: NCI-H82 human Small Cell Lung Cancer (SCLC) xenograft; assay: NCI-H82 human Small Cell Lung Cancer xenograft model; type: in vivo, mouse; conditions: dinaciclib 40 mg/kg ip q4d, ABT-199 100 mg/kg po qd
Experimental: as §2, §3

CC1(C)CCC(CN2CCN(c3ccc(C(=O)NS(=O)(=O)c4ccc(NCC5CCOCC5)c([N+](=O)[O-])c4)c(Oc4cnc5[nH]ccc5c4)c3)CC2)=C(c2ccc(Cl)cc2)C1 [ABT-199, 4-(4-{[2-(4-chlorophenyl)-4,4-dimethylcyclohex-1-en-1-yl]methyl}piperazin-1-yl)-N-({3-nitro-4-[(tetrahydro-2H-pyran-4-ylmethyl)amino]phenyl}sulfonyl)-2-(1H-pyrrolo[2,3-b]pyridin-5-yloxy)benzamide]
viability at 1 µM ([1]; NCI-H128, 8 h): 95.4%
viability at 1 µM ([2]; 8 h): 111%
viability at 1 µM ([3]; NCI-H146, 8 h): 92.6%
viability at 1 µM ([4]; SU-DHL-8, 8 h): 99.4%
viability at 1 µM ([5]; SU-DHL-4, 8 h): 85.4%
Anti-tumor effect (tumor volume) [6]: provided anti-tumor effects
Anti-tumor effect (tumor volume) [7]: single agent activity
Effect on tumor growth (single agents) [8]: no effect on tumor growth

CCc1cnn2c(NCc3ccc[n+]([O-])c3)cc(N3CCCC[C@H]3CCO)nc12 [dinaciclib, (S)-(−)-2-(1-{3-ethyl-7-[(1-oxy-pyridin-3-ylmethyl)amino]pyrazolo[1,5-a]pyrimidin-5-yl}piperidin-2-yl)ethanol]
viability at 0.1 µM ([1]; NCI-H128, H128 SCLC, dinaciclib 0.1 uM, 8 hr): 114%
viability at 0.1 µM ([2]; H82 SCLC, dinaciclib 0.1 uM, 8 hr): 64.7%
viability at 0.1 µM ([3]; NCI-H146, H146 SCLC, dinaciclib 0.1 uM, 8 hr): 118%
viability at 0.1 µM ([4]; Su-DHL-8 DLBCL, dinaciclib 0.1 uM, 8 hr): 126%
viability at 0.1 µM ([5]; Su-DHL-4 DLBCL, dinaciclib 0.1 uM, 8 hr): 53.5%
